Each structure is given as a SMILES string.

The test system of data set [1] is women after laparoscopic-assisted hysterectomy. Conditions: cited from earlier work.
The test system of data set [2] is patients undergoing a laparoscopic hysterectomy. Briefly: Phase 2 double-randomized placebo-controlled trial, CR845 dosed preoperatively and postoperatively, analgesic efficacy. The format is in vivo, human. Here is the method: This trial was a phase 2 multi-center, double-randomized, double-blind, placebo-controlled study was conducted to evaluate the analgesic efficacy and safety of intravenous CR845 dosed preoperatively and postoperatively in patients undergoing a laparoscopic hysterectomy. The trial was conducted under an investigational new drug application (IND) filed with the US Food and Drug Administration (FDA).
This phase 2 trial multi-center, double-randomized, double-blind, placebo-controlled study was conducted in 22 sites in the United States. All clinical procedures were approved by the relevant Institutional Review Board (IRB) in compliance with the applicable laws and regulations of the US. The study was initiated up to fourteen (14) days preoperatively and the in-hospital period was approximately twenty-four (24) hours for each patient and follow up was conducted within seven (7) days of discharge from the hospital.
The aim of this clinical trial was to evaluate the analgesic efficacy and safety of intravenous (IV) CR845 dosed preoperatively and postoperatively in female patients undergoing an elective laparoscopic hysterectomy. Secondary objectives were: 1. […] To evaluate the safety and tolerability of CR845.
This Phase 2, double-randomized, double-blind, placebo-controlled, parallel group study was conducted in approximately 200 female subjects, aged 18 to 65, across 22 US clinical sites. All subjects were administered a 15-minute IV infusion of 0.04 mg/kg CR845 or matching placebo before surgery in a 1:1 ratio. After surgery and upon reaching a pain intensity baseline level of at least 4 on a 10 cm visual analog scale (VAS), subjects were also re-randomized in a 1:1 ratio to receive a second IV infusion of either 0.04 mg/kg of CR845 or placebo. All doubly-randomized patients were thereby randomized to receive one of four possible treatment regimens: placebo-placebo, placebo-CR845, CR845-placebo, or CR845-CR845 (See FIG. 1). Pain intensity and pain relief scores were assessed up to 24 hours following the post-surgery infusion. Patients were allowed IV morphine for rescue at any point during the post-operative period, if requested.
The main efficacy endpoints were the total morphine consumption in the first 24 hours in patients who were re-randomized in the postoperative period and the efficacy of CR845 in reducing pain intensity including time specific VAS difference; summed pain intensity differences (SPIDs); area under the curve (AUC); pain relief; and the proportion of patients that were randomized to receive preoperative CR845 with no rescue medication postoperatively. The safety endpoints included the incidence of adverse events, physical examination, vital signs, 12-lead ECG, clinical laboratory evaluations, and cumulative fluid balance.

The subject of data set [3] is patients post laparoscopic surgery. Briefly: Adverse events in subjects treated with CR845 or placebo, Phase IIb trial. The class given is in vivo, human. The settings on record: first 24 hours post laparoscopic surgery; all CR845 treated groups; FIG. 15. Here is the method: Data are from a Phase IIb clinical trial in which subjects were administered CR845 or placebo. Generalized pruritus was distinguished from local pruritus events and shown separately in FIG. 15. Adverse events were lower in all CR845 treated patient groups as compared with placebo treated patients.

As to `CC(C)C[C@@H](NC(=O)[C@@H](Cc1ccccc1)NC(=O)[C@H](N)Cc1ccccc1)C(=O)N[C@H](CCCCN)C(=O)N1CCC(N)(C(=O)O)CC1` [CR845, D-Phe-D-Phe-D-Leu-D-Lys-[ω(4-aminopiperidine-4-carboxylic acid)]-OH], the “Reduction of morphine use versus placebo” value in data set [1] (0.04 mg/kg 15-minute IV infusion after surgery, first 16 hours post-infusion) was 32%. Moreover, the “Opioid side effects (vomiting, nausea and pruritis)” value in data set [1] (0.04 mg/kg IV after surgery, versus placebo) is on record as “significant reduction”. Besides, the “Changes in clinical lab test results, vital signs, electrocardiograms, Ramsey sedation scale” value in data set [1] (0.04 mg/kg IV after surgery) was “no significant changes”. In data set [1] (administered after surgery), the “Reduction of pain intensity” value was “effective”; the Safety and tolerability entry is “safe and well tolerated”. Also, the “Tolerability in comparison to other known kappa agonists” value in data set [1] (single intravenous dose after surgery) is recorded as “better tolerated”. In addition, in data set [2] (CR845-CR845 (0.04 mg/kg IV before and after surgery), first 24 hours, FIG. 2), the “Reduction in summed pain intensity difference (SPID) pain score versus placebo only” value is given as “more than twice the reduction”. In data set [2] (CR845-CR845 (before and after surgery), over 24 hours, FIG. 3), the “Reduction in pain intensity difference (PID) pain score versus placebo only” value is reported as “twice the reduction”. For the same compound, the “Pain relief as judged by PID score” value in data set [2] (CR845 before and after surgery, among four groups) was “highest pain intensity difference”. Besides, the “Patients' overall evaluation of pain relief as excellent” value in data set [2] (CR845 pretreatment groups (CR845-CR845, CR845-Placebo, CR845-None)) is “highest percentage of patients”. Further, in data set [2] (one dose of CR845, before or after surgery, first 24 hours, FIG. 2), the “Reduction in pain SPID scores” value was “intermediate level of reduction”. Besides, the “Reduction in pain PID scores” value in data set [2] (one dose of CR845, before or after surgery, first 24 hours, FIG. 3) is “intermediate level of reduction”. In data set [2] (two doses of CR845, intervals 2-4, 4-12 and 12-24 hours post surgery, FIG. 4), the “Morphine self-administered by the patients” value is reported as “least morphine”. For the same compound, the “Adverse events (nausea, vomiting and pruritus) compared with placebo” value in data set [3] was “lower”.

Values taken from patent publication US20150150935A1, “[…] RECEPTOR AGONISTS FOR REDUCING PAIN AND INFLAMMATION” (CARA THERAPEUTICS, INC., priority 2012, published 2015).
